Measurements published in patent US20260327216A1, “SUBSTITUTED OXAZOLONE COMPOUND FOR DECREASING LEVELS OF IKZF I-4 PROTEINS” (BRISTOL-MYERS SQUIBB COMPANY, priority 2023, published 2026).

Columns and labels:
[1] = target: T1, IKZF2 Helios (Homo sapiens, UniProt Q96SW2+Q9UKS7); assay: Human Regulatory T Cell Degradation Assay, IKZF2; format: cell-based; set-up: endogenous in cells; host or cells: FACS-sorted human CD4+CD127lowCD25+ Treg cells from healthy leukopaks; conditions: human regulatory T cells, 20 hours; for Dmax: Regulatory T cell, 100% = complete degradation, read-out: IKZF2 Helios max % deg. observed
T1 sequence (Q9UKS7 whole entry): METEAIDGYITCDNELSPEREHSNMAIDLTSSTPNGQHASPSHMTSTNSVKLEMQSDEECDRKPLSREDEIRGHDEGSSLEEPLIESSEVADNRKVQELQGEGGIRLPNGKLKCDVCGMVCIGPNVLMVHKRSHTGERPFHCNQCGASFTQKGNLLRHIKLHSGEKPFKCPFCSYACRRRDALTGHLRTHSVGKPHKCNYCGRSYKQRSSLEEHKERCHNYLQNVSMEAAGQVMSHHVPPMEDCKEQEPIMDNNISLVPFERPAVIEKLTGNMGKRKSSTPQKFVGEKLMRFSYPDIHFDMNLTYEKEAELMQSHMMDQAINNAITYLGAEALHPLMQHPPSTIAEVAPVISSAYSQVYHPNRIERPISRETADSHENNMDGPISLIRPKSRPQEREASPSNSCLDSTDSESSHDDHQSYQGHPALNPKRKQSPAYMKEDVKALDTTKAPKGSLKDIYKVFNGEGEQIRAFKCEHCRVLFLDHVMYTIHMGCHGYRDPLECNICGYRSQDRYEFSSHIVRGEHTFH
T1 sequence (Q96SW2 whole entry): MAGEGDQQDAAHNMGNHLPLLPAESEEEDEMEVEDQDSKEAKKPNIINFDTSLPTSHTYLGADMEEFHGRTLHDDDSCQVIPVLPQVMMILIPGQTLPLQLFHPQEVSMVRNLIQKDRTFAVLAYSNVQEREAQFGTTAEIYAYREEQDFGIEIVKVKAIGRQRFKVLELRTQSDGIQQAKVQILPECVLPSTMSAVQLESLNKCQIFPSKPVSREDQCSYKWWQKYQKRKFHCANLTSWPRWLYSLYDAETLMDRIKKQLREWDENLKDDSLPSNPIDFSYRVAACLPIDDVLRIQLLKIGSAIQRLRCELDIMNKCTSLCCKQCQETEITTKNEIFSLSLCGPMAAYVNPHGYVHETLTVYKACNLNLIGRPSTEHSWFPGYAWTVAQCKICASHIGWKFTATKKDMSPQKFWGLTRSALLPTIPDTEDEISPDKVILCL
T1 sequence (Q16531 whole entry partner): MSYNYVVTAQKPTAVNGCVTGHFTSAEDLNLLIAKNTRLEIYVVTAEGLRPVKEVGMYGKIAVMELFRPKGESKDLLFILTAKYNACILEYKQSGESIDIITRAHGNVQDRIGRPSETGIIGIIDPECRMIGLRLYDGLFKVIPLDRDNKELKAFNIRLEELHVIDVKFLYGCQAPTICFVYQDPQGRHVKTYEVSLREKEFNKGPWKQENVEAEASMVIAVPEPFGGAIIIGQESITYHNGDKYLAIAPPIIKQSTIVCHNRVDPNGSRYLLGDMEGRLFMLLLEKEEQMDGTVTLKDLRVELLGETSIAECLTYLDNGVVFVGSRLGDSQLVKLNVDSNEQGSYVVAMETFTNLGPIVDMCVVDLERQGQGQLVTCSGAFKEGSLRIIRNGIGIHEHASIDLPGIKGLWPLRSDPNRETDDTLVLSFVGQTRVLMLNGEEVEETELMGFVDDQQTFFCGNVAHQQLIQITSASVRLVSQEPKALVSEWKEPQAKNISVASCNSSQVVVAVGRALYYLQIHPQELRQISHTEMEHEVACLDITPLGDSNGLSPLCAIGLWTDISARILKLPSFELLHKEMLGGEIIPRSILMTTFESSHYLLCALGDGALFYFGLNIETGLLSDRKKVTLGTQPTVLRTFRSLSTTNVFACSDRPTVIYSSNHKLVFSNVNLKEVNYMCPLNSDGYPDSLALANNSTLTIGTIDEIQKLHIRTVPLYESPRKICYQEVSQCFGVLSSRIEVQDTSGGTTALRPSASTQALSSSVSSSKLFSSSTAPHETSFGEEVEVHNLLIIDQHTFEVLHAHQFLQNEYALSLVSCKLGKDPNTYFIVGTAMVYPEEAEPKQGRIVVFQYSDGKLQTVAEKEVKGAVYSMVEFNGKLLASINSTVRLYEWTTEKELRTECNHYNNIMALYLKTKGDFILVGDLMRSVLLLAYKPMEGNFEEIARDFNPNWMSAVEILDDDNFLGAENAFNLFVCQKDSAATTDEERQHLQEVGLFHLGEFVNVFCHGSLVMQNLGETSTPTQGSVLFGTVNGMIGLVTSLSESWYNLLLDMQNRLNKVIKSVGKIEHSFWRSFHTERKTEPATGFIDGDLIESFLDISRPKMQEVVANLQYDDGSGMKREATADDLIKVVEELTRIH
Protocol: Cryopreserved human regulatory T cells were thawed in RPMI+10% FBS+20 ng/mL IL-2. After being spun at 1200 rpm for 5 mins, the cells were resuspended in RPMI+10% FBS+20 ng/mL and rested at 37° C. with 5% CO2 for 3 hours. The cells were then plated at 40,000 cells/well in 40 μL RPMI+10% FBS+20 ng/ml human IL-2 in a 384 well cell culture plate prior to using acoustic dispensing technology (ECHO 555) for adding compounds of interest. Cell cultures were incubated for 20 hours at 37° C. and 5% CO2. In order to facilitate analysis, cell cultures were spun down at 1200 rpm for 5 minutes and the supernatant was discarded using an EL406 plate washer. After washing three times with 70 μL PBS, cell pellets were resuspended in 50 μL of near IR viability staining solution (Life Technologies, Cat #L34975) and incubated for 30 minutes on ice protected from light. Cells were washed three times with 70 μL PBS+0.5% BSA using an EL406 plate washer. After shaking the plate to dislodge the cell pellet, cells were resuspended in 50 μL of Fixation Buffer (eBioScience FoxP3 buffer set 00-5523-00) for 60 minutes at room temperature. After centrifuging and discarding the supernatant, cells were permeabilized with 50 μL of permeabilization buffer (eBioScience FoxP3 buffer set 00-5523-00) for 10 minutes at room temperature. Following permeabilization, cells were spun down and the supernatant was replaced with 30 μL fluorescently labelled antibodies against the intracellular targets Helios (Helios-APC [BioLegend, Cat #137222, 1:50])]), Aiolos, and Ikaros 1× Permeabilization buffer and staining reactions were incubated for 1 bour at room temperature; protected from light. Subsequently, 30 μL of 1× Permeabilization buffer was added prior to centrifuging the cells and discarding the supernatant. Stained cells were resuspended in 30 μL of flow cytometry staining buffer (PBS+0.5% BSA) and analyzed using an Intellicyt Ique Plus flow cytometer.
(§1) Table B-1 lists the maximum observed degradation of the IKZF1 protein and IKZF2 protein as measured in the Human Regulatory T Cell Degradation assay. The results in Table B-1 were rounded to two digits. In the Human Regulatory T Cell Degradation assay, a value of 100% indicated no detectable protein remaining or complete degradation of the protein; and a value of 0% indicated no detectable degradation of the protein by the test compound.

[2] = target: T1, IKZF2 Helios; assay: Jurkat Cellular Degradation Assay, IKZF2; format: cell-based; set-up: endogenous in cells; conditions: Jurkat cells, 72 h; for Dmax: Jurkat, human, 100% = complete degradation, 0% = no detectable degradation, read-out: IKZF2 Helios max % deg. observed
Protocol: Jurkat cells were plated at 80,000 cells/well in 40 μL RPMI+10% FBS in a 384-well cell culture plate prior to using acoustic dispensing technology for adding a compound of interest. Cell cultures were incubated for 72 h at 37° C. and 5% CO2. In order to facilitate analysis, cell cultures were spun down at 200 rpm for 5 min and the supernatant was discarded. After shaking the plate to dislodge the cell pellet, cells were resuspended in 50 μL of Fixation Buffer (eBioscience FoxP3 buffer set 00-5523-00) for 60 min at room temperature. After centrifuging and discarding the supernatant, cells were permeabilized with 50 μL of Permeabilization buffer (eBioscience FoxP3 buffer set 00-5523-00) for 10 min at room temperature. Following permeabilization, cells were spun down and the supernatant was replaced with 20 μL fluorescently labelled antibodies against Helios, Ikaros and Aiolos or corresponding Isotype controls in 1× Permeabilization buffer (Ikaros-Alexa488 [Biolegend, Cat #368408, 1:50], Helios-PE [CST, Cat #29360, 1:50], Aiolos-Alexa647 [Biolegend, Cat #371106 Biolegend, 1:25]) and staining reactions were incubated for 1 h at room temperature while protected from light. Subsequently, 30 μL of 1× Permeabilization buffer was added prior to centrifuging the cells and discarding the supernatant. Stained cells were resuspended in 25 μL of flow cytometry staining buffer [PBS+0.2% bovine serum albumin (BSA)] and analyzed using an Intellicyt Ique Plus flow cytometer.
as §1, with “Table A-1” for “Table B-1”, “IKZF1 protein, IKZF2 protein,” for “IKZF1 protein”, “and IKZF3” for “and IKZF2”, “the Jurkat Cellular” for “the Human Regulatory T Cell”

[3] = concentration reducing protein level by 50% vs DMSO

Dmax [1] [%]	DC50 [2, 3] [nM]	Dmax [2] [%]	DC50 [1, 3] [nM]	SMILES
25				O=C1CCC(n2cc(-c3ccc(Br)cc3F)oc2=O)C(=O)N1 (stereo not shown) [Comparative Compound B, 3-(5-(4-bromo-2-fluorophenyl)-2-oxooxazol-3(2H)-yl)piperidine-2,6-dione]
90	17.9	> 90	0.68	Cc1cc(-c2ccc(-c3cn(C4CCC(=O)NC4=O)c(=O)o3)c(F)c2)nc(N)c1OC(F)F (stereo not shown) [Example 1, 3-(5-(4-(6-Amino-5-(difluoromethoxy)-4-methylpyridin-2-yl)-2-fluorophenyl)-2-oxooxazol-3(2H)-yl)piperidine-2,6-dione]
57		< 30		O=C1CCC(n2cc(-c3ccccc3)oc2=O)C(=O)N1 (stereo not shown) [Comparative Compound A, 3-(2-oxo-5-phenyloxazol-3(2H)-yl)piperidine-2,6-dione]
